TGI data for 1 compound are collected here from PubChem BioAssay (NCI).

Test systems include UACC-62 melanoma; SK-MEL-28 melanoma; RXF 393 renal; OVCAR-3 ovarian; HL-60(TB) leukemia; MCF7 breast; TK-10 renal; SK-MEL-2 melanoma; HCC-2998 colon; LOX IMVI melanoma.
Assay in all cases: DTP human tumour cell line panel, 48 h

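A five-concentration, 48-hour dose response in 96-well plates underlies each endpoint, interpolated linearly between surrounding concentrations. TGI denotes the concentration required for complete inhibition of growth.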 Bounds are passed on as bounds.

With `OC1(c2ccccc2)CC2CCC(C1)N2CCCC(O)(c1ccccc1)c1ccccc1` (stereo not given), the TGI with UACC-62 melanoma was 28.5 µM; in the experiment on SK-MEL-28 melanoma, 32.9 µM; in the experiment on RXF 393 renal it was 24.3 µM; in the experiment with OVCAR-3 ovarian, 30 µM; with HL-60(TB) leukemia, above 100 µM; in the experiment with MCF7 breast, 33.3 µM. The TGI in the experiment on TK-10 renal was 25.8 µM; with SK-MEL-2 melanoma it was 37.6 µM; with HCC-2998 colon, 6.25 µM; with LOX IMVI melanoma it was 22.4 µM.

Broadly, the TGI is the concentration giving total growth inhibition.
